Results from patent publication US20030194748A1, “Method for labeling with tritium” (priority 2000, published 2003).

Target: T1, TXA2 receptor (Homo sapiens, UniProt P21731)
T1 construct: human platelet membrane fraction was prepared; from tissue; host or cells: human platelets (membrane fraction from the blood of normal adult donors)
T1 sequence (P21731 1-343): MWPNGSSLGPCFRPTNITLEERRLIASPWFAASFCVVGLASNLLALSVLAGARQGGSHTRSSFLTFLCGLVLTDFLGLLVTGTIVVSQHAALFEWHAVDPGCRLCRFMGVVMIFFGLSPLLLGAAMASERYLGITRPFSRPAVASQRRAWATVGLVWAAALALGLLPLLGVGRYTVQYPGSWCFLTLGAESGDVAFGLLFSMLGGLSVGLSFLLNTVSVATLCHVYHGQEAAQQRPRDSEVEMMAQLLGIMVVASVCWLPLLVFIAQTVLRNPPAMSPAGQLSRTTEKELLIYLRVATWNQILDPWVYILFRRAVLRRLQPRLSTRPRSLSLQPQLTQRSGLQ
Assay: TXA2 receptor binding assay
Details: human platelet membrane fraction; displacement of 2 nM [3H](+)-S-145 sodium salt; 90 min at room temperature; read-out: inhibition activity IC50
Method: Blood which was obtained using a plastic syringe contained 3.8% sodium citrate from the vein of normal human (adult male and female) was put into a plastic tube, and after lightly mixing with tumbling, centrifuged at 1800 rpm, for 10 min. at a room temperature to obtain platelet rich plasma (PRP) in supernatant. The PRP was further centrifuged at 2,300 rpm, for 22 min. at a room temperature to obtain platelets. The obtained platelets was homogenized using homogenizer (Ultra-Turrax), and then, centrifuged at 20,000 rpm, for 10 min. at 4° C. to obtain a fraction of platelet membrane. The membrane fraction was subjected to a quantitative assay for a protein to be adjusted to 2 mg/ml, and kept at −80° C. in a freezer until a binding assay is conducted. […]
To 0.2 ml of a binding reaction mixture (50 mM Tris/HCl, pH 7.4, 10 mM MgCl2), human platelet membrane fraction (0.05 mg) and 26.4 Ci/mmol of 2 nM [^3H](+)-(5Z)-7-[3-endo-[(phenylsulfonyl)amino]bicyclo[2.2.1]hepto-2-exo-yl] heptenic acid sodium salt (Japanese Patent Publication No. H5-79060, referred hereinafter to (+)-S-145 sodium salt) were added, and reacted for 90 min at room temperature. After reaction, the reaction was filtered by using grass fiber filter, washed several times with cold saline, and then, radioactivity remaining on the filter was assayed. […]

SMILES | IC50
COC(=O)CCC/C=C\C[C@H]1[C@@H]2CC[C@@H](C2)[C@@H]1NC(=O)c1cccc2ccsc12 [Compound 2] | 3800 nM
O=C(O)CCC/C=C\C[C@H]1[C@@H]2CC[C@@H](C2)[C@@H]1NC(=O)c1csc2ccc(O)cc12 [Compound 1] | 150 nM
